pIC50: −log10 of the molar value. Read-outs that look alike come from different tables or passages of the source.
Legend:
[1] = tested on: IRS1; assay: IRS1 Ser-phosphorylation and IRS1 levels in MCF7 cells; assay type: cell-based; settings: breast cancer MCF7 cells
Protocol: Tyrosine autophosphorylation of the β-subunit of IGF1R as well as downstream signaling induced by IGF1R were assayed in breast cancer MCF7 cells. Tyrosine autophosphorylation of the EGFR and the EGFR signaling was assayed in prostate cancer PC3 cells. Tyrosine autophosphorylation of the PDGFR and its signaling was assayed in fibroblasts overexpres sing PDGFR. Tyro sine autophosphorylation of the IR and its signaling was assayed in fibroblasts overexpressing IR. Cells were seeded in 6-well plates (MCF7-250,000 cells/well, PC3-150,000 cells/well, fibroblasts-140,000 cells/well) and 24 hours later medium was replaced by serum-free medium (DMEM supplemented with 100 units/ml penicillin and 100 μg/ml streptomycin). Following 20 hours of serum-starvation medium was replaced with medium containing various concentrations of the inhibitors in 0.1% DMSO for additional 4 hours. Cells were then stimulated for 5 min with 50 ng/ml IGF-1 (MCF7 cells), 20 ng/ml EGF (PC3 cells), 50 ng/ml PDGF (fibroblasts overexpressing PDGFR) or 100 nM insulin (fibroblasts overexpressing IR), washed twice with PBS and lysed by boiling sample buffer (10% glycerol, 50 mM Tris-HCl, pH 6.8, 3% SDS, and 5%, β-mercaptoethanol). Equal amounts of protein per lane were separated by 8% SDS-PAGE and transferred to a nitrocellulose membrane (Sartorius AG). Phosphorylated proteins were immunoblotted with anti-phospho-IGF1R (phosphor-IGF1R), anti-phosphotyrosine-IRS1 (phospho-IRS1), anti-phospho(T308)Akt (phospho-PKB), anti-phospho-Erk (phospho-ERK), anti-phosphotyrosine 4G10&PY20 (pY-EGFR or pY-PDGFR), anti-phospho-Ser^636/639-IRS1 (pS^636/639-IRS1) and anti-phospho-STAT3 (phospho-STAT3) antibodies. Detection was performed with horseradish peroxidase-conjugated secondary antibody using the ECL system. Blots were then stripped of antibodies, blocked with TBST with 5% low fat milk and re-probed with antibodies detecting both the phosphorylated and the non-phosphorylated corresponding proteins e.g. IGF1Rβ, IRS1, PKB, ERK, IRβ, PDGFR and Stat3.
In addition, lysates were prepared from cells exposed to inhibitors at various concentrations for 24 hours in the presence or the absence of FCS without stimulation. Lysate preparation and western blot were the same as described above. Apoptosis was detected by immunoblotting with rabbit anti-PARP antibodies.

[2] = tested on: QG56; assay: Clonogenic assay QG56; assay type: cell-based; settings: Homo sapiens, QG-56, Lung
Protocol: (§1) Various cancer cells (listed in table 1) were seeded at a very low concentration (19 cells/well in 96-well plates or 63 cells/well in 24-well plates) in growth medium. A day later medium was replaced with growth medium containing various concentrations of inhibitors in a final concentration of 0.1% DMSO. The inhibitor-containing medium was refreshed three times a week. Following approximately two weeks cells were fixed by adding Gluteraldehide (0.5% final concentration) for 10 min, washed three time with DDW, once with borate buffer 0.1M and stained for 1 hour with 1% Methylene Blue in borate buffer 0.1M. Access stain was washed with water, and following drying colonies were counted. Alternatively, stain was extracted by 0.1N HCl for 1 hour and absorbance at 620 nm was measured by ELISA Reader. The assays were performed in triplicates. The values in table 1 represent IC50 values derived from the dose-dependent growth curves obtained.

[3] = tested on: U138MG; assay: Clonogenic assay U138MG; assay type: cell-based; settings: Homo sapiens, U138-MG, Glioma
Protocol: as §1

[4] = tested on: DU145; assay: Proliferation assay DU145; assay type: cell-based; settings: Homo sapiens, DU-145, Prostate, 72 hours
Protocol: (§2) Various cancer cell lines (listed in table 1) were plated at a density of 1000-5000 cells/well in 96-well plates in 90111 growth medium containing 10% FCS, 100 units/ml penicillin and 100 μg/ml streptomycin. Inhibitors were added a day later in 10 μl of 1% DMSO in DDW to obtain final concentrations of 0, 0.1, 0.3, 1, 3, and 10 μM. The final concentration of DMSO (0.1% DMSO) was kept constant in all samples. Medium with inhibitors was refreshed a day and two days later. Following exposure of the cells to the inhibitors for 72 hours at 37° C., the cells were fixed in 0.5% gluteraldehyde in medium for 10 min, washed three times with DDW, once with 0.1M sodium borate buffer pH 8.5 and stained with 1% methylene blue dissolved in 0.1M borate buffer solution for 60 min. Excess dye was washed out and cell-bound dye was eluted with 200 μl/well of 0.1 M HCl. The optical density value was read at 620 nm in ELISA plate reader. The data was analyzed in Microsoft Excel, using the vehicle control as 100% proliferation. The assays were performed in triplicates. The values in table 1 represent IC50 values derived from the dose-dependent growth curves obtained.
(§3) Compounds 6, 7, 8, and 9 were tested for their inhibitory potential in cell proliferation assay. In this assay cells were exposed to increasing concentrations of the molecules (at 0.1% DMSO in all wells) a day after seeding. Medium and inhibitors were refreshed every day, and following three days of treatment, cells were fixed and stained with methylene-Blue. IC50 values were determined from the curves of the optical density against compound concentration. The assay was performed in triplicates.

[5] = tested on: MDA MB 231; assay: Proliferation assay MDA MB 231; assay type: cell-based; settings: Homo sapiens, Breast, 72 hours
Protocol: as §2, §3

[6] = tested on: ovarian cancer A2780 cells; assay: Apoptosis (cleaved PARP) in A2780 cells; assay type: cell-based, human; settings: 21 hours of exposure
Text: […] Lysate preparation and western blot were the same as described above. Apoptosis was detected by immunoblotting with rabbit anti-PARP antibodies.

[7] = tested on: U138MG; assay: Proliferation assay U138MG; assay type: cell-based; settings: Homo sapiens, U138-MG, Glioma, 72 hours
Protocol: as §2, §3

[8] = tested on: PC3; assay: Clonogenic assay PC3; assay type: cell-based; settings: Homo sapiens, PC-3, Prostate
Protocol: as §1

[9] = tested on: NCl-H1975; assay: Proliferation assay NCl-H1975; assay type: cell-based; settings: Lung, 72 hours
Protocol: as §2, §3

[10] = tested on: LIM 1899; assay: Proliferation assay LIM 1899; assay type: cell-based; settings: Colon, 72 hours
Protocol: as §2, §3

[11] = tested on: B16; assay: Clonogenic assay B16; assay type: cell-based; settings: Mus musculus, Melanoma
Protocol: as §1

[12] = tested on: MCF-7; assay: Proliferation assay MCF-7; assay type: cell-based; settings: Homo sapiens, MCF7, Breast, 72 hours
Protocol: as §2, §3

[13] = tested on: YUMAC; assay: Proliferation assay YUMAC; assay type: cell-based; settings: Homo sapiens
Protocol: as §2, §3

[14] = tested on: A2780; assay: Clonogenic assay A2780; assay type: cell-based; settings: Homo sapiens, Ovarian
Protocol: as §1

[15] = tested on: PC3; assay: Proliferation assay PC3; assay type: cell-based, human; settings: Prostate
Protocol: as §2, §3

[16] = Melanoma, YUMAC, 72 hours, read-out: Proliferation assay IC50
[17] = Table 4, 72 hours incubation, read-out: Inhibition of human metastatic melanoma cells, YUMAC IC50

Row | SMILES | Cellular levels of IRS1 [1] | pIC50 [2] | pIC50 [3] | pIC50 [4] | pIC50 [5] | Apoptosis (cleaved PARP detection) [6] | pIC50 [7] | pIC50 [8] | pIC50 [9] | pIC50 [10] | pIC50 [11] | pIC50 [12] | pIC50 [13, 16] | pIC50 [13, 17] | pIC50 [14] | pIC50 ([15]; Homo sapiens, PC-3, 72 h) | IRS1 Ser-phosphorylation [1] | pIC50 ([15]; 72 hours)
1 | N#C/C(=C\c1cc(O)c(O)c(Br)c1)C(=S)NCc1cc(O)c(O)c(Br)c1 [Compound 6] | has no effect | 5.62 | 5.66 | < 5.00 | < 5.00 | undergo apoptosis | 5.70 | 6.15 | < 5.00 | < 5.00 | 6.10 | 5.68 | 5.07 | 5.07 | 7.00 | < 5.00 |  | 
2 | N#C/C(=C\c1cc(O)c(O)c(Br)c1)C(=S)NCc1cc(O)c(O)c(O)c1 [Compound 7] | induce a decrease in the cellular levels | 5.77 | 5.74 | 5.18 | 5.20 | undergo apoptosis | 6.10 | 5.38 | 5.60 | 5.12 | 6.40 | 5.32 | 5.92 | 5.92 | 6.40 | 5.55 | increase in IRS1 Ser-phosphorylation | 5.41
3 | N#C/C(=C\c1cc(O)c(O)c(I)c1)C(=S)NCc1cc(O)c(O)c(O)c1 [Compound 8] |  | 5.85 | 5.80 | 5.19 | 5.13 | undergo apoptosis | 6.10 | 6.00 | 5.64 | 5.15 | 6.40 | 5.55 | 5.92 | 5.92 | 6.40 | 5.34 | trigger IRS1-ser phosphorylation | 5.44
4 | Oc1cc(CNC(=S)/C=C/c2cc(O)c(O)c(Br)c2)cc(O)c1O [Compound 9] |  | 6.30 | 6.30 | 5.74 | < 5.00 | undergo apoptosis | 6.70 | 5.92 | 5.57 | 5.70 |  | 5.60 | 6.22 | 6.22 | 6.52 | 5.57 | trigger IRS1-ser phosphorylation | 5.70

Source: US8058309B2, “Protein kinase modulators and therapeutic uses thereof” (Novotyr Therapeutics Ltd., priority 2006, dated 2011)
